Assay results as given in patent EP1154787B1 (priority 1999, dated 2000).
Where “and” joins values, the source holds several entries; their conditions need not be identical. Identical values can stand only once. Entries after “also recorded” stand apart in the source; their conditions may differ. Counter-ions that a name gives are not always drawn. Like-named read-outs stand apart in the source and are kept apart here.

Columns and labels:
a viral challenge = type: cell-based; details: for EC50: read-out: µM of test compounds # (concentration of test compound alone to protect Vero cells against a viral challenge by approximately 50%)
yellow fever virus = type: cell-based
VSV [1] = type: cell-based
[2] = cited from earlier work
kunjin virus [3] = type: cell-based
dengue virus = type: cell-based
VSV [4] = type: cell-based; remark: listed apart in the source
kunjin virus [5] = type: cell-based; remark: listed apart in the source

| Compound | Fold enhancement of antiviral activity (a viral challenge) [fold] | EC50 (a viral challenge) [µM] | CI (yellow fever virus) | CI (VSV [1]) | also measured |
| --- | --- | --- | --- | --- | --- |
| C#Cc1c(C(N)=O)ncn1[C@@H]1O[C@H](CO)[C@@H](O)[C@H]1O [EICAR, 5-ethynyl-1-β-D-ribofuranosylimidazole-4-carboxamide] | 2 | ~1 | – | – | – |
| NC(=O)c1c[se]c([C@@H]2O[C@H](CO)[C@@H](O)[C@H]2O)n1 [Selenofurin, 2-β-D-ribofuranosylselenazole-4-carboxamide] | – | – | 0.94 and 0.65 and 0.53 and 0.62 and 0.49 | – | – |
| NC(=O)c1[nH]nc([C@@H]2O[C@H](CO)[C@@H](O)[C@H]2O)c1O [NSC 143095] | – | – | 0.71 and 0.57 and 0.69 | – | – |
| Nc1nccc2c1ncn2[C@@H]1C=C(CO)[C@@H](O)[C@H]1O [3-DAN, 3-deazaneplanocin A] | – | – | – | 0.88 and 0.85 and 0.79 and 0.80 and 0.92 and 0.90 and 0.84 | – |
| Nc1ccn([C@@H]2C=C(CO)[C@@H](O)[C@H]2O)c(=O)n1 [CPE-C, cyclopentenyl cytosine] | 10 | ~0.1 | – | 0.98 and 0.81 and 0.80 and 0.97 and 0.75 and 0.79 and 0.76 and 0.74 | deaths with refractory hypotension ([2]; hypotensive patients at 4.7 mg/m^2 per hour of CPE-C): Two of the four hypotensive patients died; hypotension ([2]; patients receiving ≤2.5 mg/m^2 per h CPE-C): Hypotension was not seen; also recorded: no hypotension was observed; hypotension ([2]; patients who received 4.7 mg/m^2 per hour of CPE-C, 24 to 48 hours after completion of infusion): Four of the eleven patients; enhancement of the antiviral activity of interferon (kunjin virus [3]): 10 fold and 5 fold |
| Cc1nc(N)nc(N)c1-c1ccc(Cl)c(Cl)c1 [NSC 7364] | – | – | – | – | CI (dengue virus): 0.834 and 0.813 and 0.979; IC50 (dengue virus; read-out: NSC 7364 IC50): 372 nM |
| NC(=O)c1csc([C@@H]2O[C@H](CO)[C@@H](O)[C@H]2O)n1 [Tiazofurin, 2-β-D-ribofuranosylthiazole-4-carboxamide] | – | – | 0.85 and 0.68 and 0.51 and 0.87 | – | – |
| O=c1cnn([C@@H]2O[C@H](CO)[C@@H](O)[C@H]2O)c(=O)[nH]1 [6-AU, 6-azauridine] | – | – | – | 0.49 and 0.59 | – |
| COc1c(C)c2c(c(O)c1C/C=C(\C)CCC(=O)O)C(=O)OC2 [mycophenolic acid] | 3 | ~0.1 | – | – | IC50 (VSV [1]; read-out: MPA IC50): 200 nM; CI (VSV [4]): 0.48 and 0.46 and 0.56 |
| CCc1c(CNc2ccc(C(=O)NC(CC(=O)O)C(=O)O)cc2)ccc2nc(N)nc(N)c12 (stereo not drawn) [NSC 184692] | – | – | – | – | enhanced the anti-viral effect of human IFNβ (dengue virus): 10 fold; EC50 (dengue virus; read-out: ED50 against dengue virus): 0.12 nM |
| Nc1ncnc2c1ncn2[C@@H]1C=C(CO)[C@@H](O)[C@H]1O [Neplanocin A, neplanocin A] | – | – | 0.63 and 0.71 and 0.59 | 0.80 and 0.56 and 0.40 and 0.67 and 0.71 | – |
| NC12CC3CC(CC(C3)C1)C2 [amantadine, amantadine hydrochloride] | 50 | ~1 | – | – | CI (VSV [1]; hydrochloride): 0.79 and 0.76 and 0.62 and 0.66 and 0.87; CI (kunjin virus [5]): 0.76 |
| CCc1nc(N)nc(N)c1-c1ccc(Cc2ccccc2)c([N+](=O)[O-])c1 [NSC 382046] | – | – | – | – | CI (dengue virus): 0.758 and 0.672; CI (kunjin virus [5]): 0.99 and 0.96 and 0.83 and 0.75 and 0.70 |
